Patent publication US12486253B2, “Therapeutics for the degradation of mutant BRAF” (C4 THERAPEUTICS, INC., priority 2021, dated 2025)
Read-outs that look alike come from different tables or passages of the source.

Target: BRAF V600E (Homo sapiens, UniProt P15056, V600E)
Assay: HiBiT cellular BRAF^V600E degradation assay
Type: cell-based
Conditions: for DC50: concentration at which 50% of total cellular BRAF^V600E is degraded; for Emax: read-out: HiBit 24 h Emax
[1] = A375.10 cells, 24 h, residual protein remaining in the cell

Sequence of BRAF V600E (P15056 whole entry V600E): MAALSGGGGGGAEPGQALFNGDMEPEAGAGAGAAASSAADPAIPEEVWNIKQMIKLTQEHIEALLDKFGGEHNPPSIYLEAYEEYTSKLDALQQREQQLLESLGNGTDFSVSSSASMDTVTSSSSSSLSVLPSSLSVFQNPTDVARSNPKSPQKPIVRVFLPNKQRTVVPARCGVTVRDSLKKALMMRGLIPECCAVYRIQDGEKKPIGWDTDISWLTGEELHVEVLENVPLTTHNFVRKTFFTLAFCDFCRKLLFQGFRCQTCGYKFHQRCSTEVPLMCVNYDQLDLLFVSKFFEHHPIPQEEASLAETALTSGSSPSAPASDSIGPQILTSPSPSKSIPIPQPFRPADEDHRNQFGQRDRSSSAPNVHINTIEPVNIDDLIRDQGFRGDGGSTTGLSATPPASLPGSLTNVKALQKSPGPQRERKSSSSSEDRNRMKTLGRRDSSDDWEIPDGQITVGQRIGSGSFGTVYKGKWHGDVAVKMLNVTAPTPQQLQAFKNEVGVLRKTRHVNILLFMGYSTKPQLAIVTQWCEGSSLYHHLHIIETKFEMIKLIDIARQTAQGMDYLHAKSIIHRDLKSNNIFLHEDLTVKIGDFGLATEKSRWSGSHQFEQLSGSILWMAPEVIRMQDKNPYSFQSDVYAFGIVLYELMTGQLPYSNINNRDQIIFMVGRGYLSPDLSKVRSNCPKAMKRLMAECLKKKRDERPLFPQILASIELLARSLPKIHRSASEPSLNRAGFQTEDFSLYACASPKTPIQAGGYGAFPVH

SMILES | DC50 (A375.10 cells, 24 h) | Emax [1] | Emax
CCN(C)S(=O)(=O)Nc1ccc(F)c(Oc2ccc3ncn([C@H]4COC5(CCN(C(=O)CC6CCN(c7ccc(NC8CCC(=O)NC8=O)cc7F)CC6)CC5)C4)c(=O)c3c2)c1C#N (stereo partly drawn) [Example 47, (3R)-3-[6-[2-cyano-3-[[ethyl(methyl)sulfamoyl]amino]-6-fluorophenoxy]-4-oxoquinazolin-3-yl]-8-[2-[1-[4-[(2,6-dioxopiperidin-3-yl)amino]-2-fluorophenyl]piperidin-4-yl]acetyl]-1-oxa-8-azaspiro[4.5]decane] | 25.7 nM | 19.3% | 
CCN(C)S(=O)(=O)Nc1ccc(F)c(Oc2ccc3ncn([C@H]4CCC5(CCN(C(=O)CN6CCN(c7ccc(NC8CCC(=O)NC8=O)cc7F)CC6)CC5)C4)c(=O)c3c2)c1C#N (stereo partly drawn) [Example 48, 6-[2-cyano-3-[[ethyl(methyl)sulfamoyl]amino]-6-fluorophenoxy]-3-[(3S)-8-[2-[4-[4-[(2,6-dioxopiperidin-3-yl)amino]-2-fluorophenyl]piperazin-1-yl]acetyl]-8-azaspiro[4.5]decan-3-yl]-4-oxoquinazoline] | 34.5 nM | 15.6% | 
N#Cc1c(NS(=O)(=O)N2CC[C@@H](F)C2)ccc(F)c1Oc1ccc2ncn([C@H]3COC4(CCN(C(=O)CN5CCC(c6ccc(NC7CCC(=O)NC7=O)cc6F)CC5)CC4)C3)c(=O)c2c1 (stereo partly drawn) [Example 49, (3R)—N-[2-cyano-3-[3-[(3R)-8-[2-[4-[4-[(2,6-dioxopiperidin-3-yl)amino]-2-fluorophenyl]piperidin-1-yl]acetyl]-1-oxa-8-azaspiro[4.5]decan-3-yl]-4-oxoquinazolin-6-yl]oxy-4-fluorophenyl]-3-fluoropyrrolidine-1-sulfonamide] | 148 nM | 10.8% | 
CCN(C)S(=O)(=O)Nc1ccc(F)c(Oc2ccc3ncn([C@H]4COC5(CCN(C(=O)CN6CCN(c7ccc(NC8CCC(=O)NC8=O)cc7F)CC6)CC5)C4)c(=O)c3c2)c1C#N (stereo partly drawn) [Example 50, (3R)-3-[6-[2-cyano-3-[[ethyl(methyl)sulfamoyl]amino]-6-fluorophenoxy]-4-oxoquinazolin-3-yl]-8-[2-[4-[4-[(2,6-dioxopiperidin-3-yl)amino]-2-fluorophenyl]piperazin-1-yl]acetyl]-1-oxa-8-azaspiro[4.5]decane] | 128 nM | 13.4% | 
CCN(C)S(=O)(=O)Nc1ccc(F)c(Oc2ccc3ncn(C4COC5(CCN(C(=O)CN6CCC(c7ccc(NC8CCC(=O)NC8=O)cc7F)CC6)CC5)C4)c(=O)c3c2F)c1C#N (centres unmarked) [Example 51, 3-[6-[2-cyano-3-[[ethyl(methyl)sulfamoyl]amino]-6-fluorophenoxy]-5-fluoro-4-oxoquinazolin-3-yl]-8-[2-[4-[4-[(2,6-dioxopiperidin-3-yl)amino]-2-fluorophenyl]piperidin-1-yl]acetyl]-1-oxa-8-azaspiro[4.5]decane] | 29.6 nM | 10.9% | 
CCN(C)S(=O)(=O)Nc1ccc(F)c(Oc2ccc3ncn(C4CCC5(CCN(C(=O)CN6CCC(c7ccc(NC8CCC(=O)NC8=O)cc7F)CC6)CC5)C4)c(=O)c3c2F)c1C#N (centres unmarked) [Example 52, 6-[2-cyano-3-[[ethyl(methyl)sulfamoyl]amino]-6-fluorophenoxy]-3-[8-[2-[4-[4-[(2,6-dioxopiperidin-3-yl)amino]-2-fluorophenyl]piperidin-1-yl]acetyl]-8-azaspiro[4.5]decan-3-yl]-5-fluoro-4-oxoquinazoline] | 20.7 nM | 11.4% | 
CCN(C)S(=O)(=O)Nc1ccc(F)c(Oc2ccc3ncn([C@H]4COC5(CCN(C(=O)CN6CCC(c7ccc(NC8CCC(=O)NC8=O)c(F)c7)CC6)CC5)C4)c(=O)c3c2)c1C#N (stereo partly drawn) [Example 54, (3R)-3-[6-[2-cyano-3-[[ethyl(methyl)sulfamoyl]amino]-6-fluorophenoxy]-4-oxoquinazolin-3-yl]-8-[2-[4-[4-[(2,6-dioxopiperidin-3-yl)amino]-3-fluorophenyl]piperidin-1-yl]acetyl]-1-oxa-8-azaspiro[4.5]decane] | 15.4 nM |  | 12.1%
CCN(C)S(=O)(=O)Nc1ccc(F)c(Oc2ccc3ncn([C@H]4CCC5(CCN(C(=O)CN6CCN(c7ccc(C8CCC(=O)NC8=O)cc7F)CC6)CC5)C4)c(=O)c3c2)c1C#N (stereo partly drawn) [Example 55, 6-[2-cyano-3-[[ethyl(methyl)sulfamoyl]amino]-6-fluorophenoxy]-3-[(3S)-8-[2-[4-[4-(2,6-dioxopiperidin-3-yl)-2-fluorophenyl]piperazin-1-yl]acetyl]-8-azaspiro[4.5]decan-3-yl]-4-oxoquinazoline] | 30 nM | 14.7% | 
N#Cc1c(NS(=O)(=O)C2CCCC2)ccc(F)c1Oc1ccc2ncn([C@H]3COC4(CCN(C(=O)CN5CCC(c6ccc(NC7CCC(=O)NC7=O)cc6F)CC5)CC4)C3)c(=O)c2c1 (stereo partly drawn) [Example 56, N-[2-cyano-3-[3-[(3R)-8-[2-[4-[4-[(2,6-dioxopiperidin-3-yl)amino]-2-fluorophenyl]piperidin-1-yl]acetyl]-1-oxa-8-azaspiro[4.5]decan-3-yl]-4-oxoquinazolin-6-yl]oxy-4-fluorophenyl]cyclopentanesulfonamide] | 31.6 nM | 11.6% | 
CCN(C)S(=O)(=O)Nc1ccc(F)c(Oc2ccc3ncn(C4CCC5(CCN(C(=O)CN6CCC(c7ccc(NC8CCC(=O)NC8=O)cc7F)CC6)CC5)C4)c(=O)c3c2C)c1C#N (centres unmarked) [Example 57, 6-[2-cyano-3-[[ethyl(methyl)sulfamoyl]amino]-6-fluorophenoxy]-3-[8-[2-[4-[4-[(2,6-dioxopiperidin-3-yl)amino]-2-fluorophenyl]piperidin-1-yl]acetyl]-8-azaspiro[4.5]decan-3-yl]-5-methyl-4-oxoquinazoline] | 20.9 nM | 11.5% | 
CCN(C)S(=O)(=O)Nc1ccc(F)c(Oc2ccc3ncn([C@H]4COC5(CCN(C(=O)CN6CCC(c7ccc(NC8CCC(=O)NC8=O)cc7F)C(F)(F)C6)CC5)C4)c(=O)c3c2)c1C#N (stereo partly drawn) [Example 58, (3R)-3-[6-[2-cyano-3-[[ethyl(methyl)sulfamoyl]amino]-6-fluorophenoxy]-4-oxoquinazolin-3-yl]-8-[2-[4-[4-[(2,6-dioxopiperidin-3-yl)amino]-2-fluorophenyl]-3,3-difluoropiperidin-1-yl]acetyl]-1-oxa-8-azaspiro[4.5]decane] | 45.3 nM | 13.9% | 
CCN(C)S(=O)(=O)Nc1ccc(F)c(Oc2ccc3ncn(C4COC5(CCN(C(=O)CN6CCC(c7ccc(NC8CCC(=O)NC8=O)cc7F)CC6)CC5)C4)c(=O)c3c2C)c1C#N (centres unmarked) [Example 59, 3-[6-[2-cyano-3-[[ethyl(methyl)sulfamoyl]amino]-6-fluorophenoxy]-5-methyl-4-oxoquinazolin-3-yl]-8-[2-[4-[4-[(2,6-dioxopiperidin-3-yl)amino]-2-fluorophenyl]piperidin-1-yl]acetyl]-1-oxa-8-azaspiro[4.5]decane] | 56 nM | 10.4% | 
CCN(C)S(=O)(=O)Nc1ccc(F)c(Oc2ccc3ncn([C@H]4COC5(CCN(C(=O)CN6CCN(c7ccc(C8CCC(=O)NC8=O)cc7F)CC6)CC5)C4)c(=O)c3c2)c1C#N (stereo partly drawn) [Example 60, (3R)-3-[6-[2-cyano-3-[[ethyl(methyl)sulfamoyl]amino]-6-fluorophenoxy]-4-oxoquinazolin-3-yl]-8-[2-[4-[4-(2,6-dioxopiperidin-3-yl)-2-fluorophenyl]piperazin-1-yl]acetyl]-1-oxa-8-azaspiro[4.5]decane] | 40.5 nM | 13% | 
